According to patent publication US10183933B2, “Isoindolinone inhibitors of phosphatidylinositol 3-kinase” (Vertex Pharmaceuticals Incorporated, priority 2009, dated 2019):

Biological target: PI3K-gamma (Homo sapiens, UniProt P48736)
Assay: PI3K inhibition assay (33P-ATP, PI(4,5)P2 substrate), PI3K-gamma; note: 2 nM enzyme
Format: biochemical
Settings: not given
Description: One test well also contained 1.5 μL of DMSO with no compound. […] Using a Titertek Multidrop, 50 μL of Reaction Mix [100 mM HEPES pH 7.5, 50 mM NaCl, 10 mM DTT, 0.2 mg/mL BSA, 60 μM phosphatidylinositol(4,5)bisphosphate diC16 (PI(4,5)P2; Avanti Polar Lipids, Cat. No. 840046P) and PI3K isoform of interest (see Table 3 for isoform concentrations)] was added to each well. To initiate the reaction, 50 μL of ATP Mix [20 mM MgCl2, 6 μM ATP (100 μCi/μmole ^33P-ATP)] was added each well, followed by incubating the wells for 30 min. at 25° C. Final concentrations in each well were 50 mM HEPES 7.5, 10 mM MgCl2, 25 mM NaCl, 5 mM DTT, 0.1 mg/mL BSA, 30 μM PI(4,5)P2, 3 μM ATP, and the PI3K isoform of interest (see Table 2). Final compound concentrations in each well ranged from 10 μM to 1 nM.
After incubation, the reactions in each well were quenched by addition of 50 μL of stop solution [30% TCA/Water, 10 mM ATP]. […] 50 μL of scintillation fluid was added to each well and the plate read on a Perkin-Elmer TopCount™ NXT liquid scintillation counter to obtain ^33P-counts representing inhibition values.
The value for the background well was subtracted from the value obtained for each test well and the data were fit to the competitive tight binding Ki equation described by Morrison and Stone, Comments Mol. Cell Biophys.

Sequence of PI3K-gamma (P48736 whole entry, species assumed): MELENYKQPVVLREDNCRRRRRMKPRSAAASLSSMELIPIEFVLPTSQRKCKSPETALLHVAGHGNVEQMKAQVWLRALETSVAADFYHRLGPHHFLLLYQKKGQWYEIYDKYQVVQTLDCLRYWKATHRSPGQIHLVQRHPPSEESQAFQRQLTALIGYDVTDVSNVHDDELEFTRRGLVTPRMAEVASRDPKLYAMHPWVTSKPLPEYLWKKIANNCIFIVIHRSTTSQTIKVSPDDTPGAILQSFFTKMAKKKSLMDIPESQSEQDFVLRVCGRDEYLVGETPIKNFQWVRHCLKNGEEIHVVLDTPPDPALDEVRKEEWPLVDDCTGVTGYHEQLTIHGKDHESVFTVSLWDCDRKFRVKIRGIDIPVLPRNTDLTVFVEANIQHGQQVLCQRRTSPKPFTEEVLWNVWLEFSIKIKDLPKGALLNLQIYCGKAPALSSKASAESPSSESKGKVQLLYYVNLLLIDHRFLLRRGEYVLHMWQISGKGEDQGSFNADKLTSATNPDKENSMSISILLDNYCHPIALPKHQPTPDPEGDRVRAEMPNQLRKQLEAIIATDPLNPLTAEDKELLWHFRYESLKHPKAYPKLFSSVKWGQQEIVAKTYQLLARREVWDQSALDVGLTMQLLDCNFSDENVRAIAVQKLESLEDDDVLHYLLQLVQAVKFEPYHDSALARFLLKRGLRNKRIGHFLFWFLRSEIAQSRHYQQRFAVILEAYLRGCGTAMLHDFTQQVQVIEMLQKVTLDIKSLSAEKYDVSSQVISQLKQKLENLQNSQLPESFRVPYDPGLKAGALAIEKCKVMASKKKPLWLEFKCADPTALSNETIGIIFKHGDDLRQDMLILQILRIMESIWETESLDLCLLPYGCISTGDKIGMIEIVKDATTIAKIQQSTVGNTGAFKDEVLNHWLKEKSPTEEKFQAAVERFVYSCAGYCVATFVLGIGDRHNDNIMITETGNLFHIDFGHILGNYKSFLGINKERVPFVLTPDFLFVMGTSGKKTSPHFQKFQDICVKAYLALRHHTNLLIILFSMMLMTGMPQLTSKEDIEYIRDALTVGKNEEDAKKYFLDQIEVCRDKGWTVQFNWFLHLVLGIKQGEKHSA

| Structure (SMILES) | Ki [nM] |
| --- | --- |
| Cc1cc(-c2cncc(OCC(F)F)c2)nc2c1C(=O)N(c1ccn(C3CCOC3)n1)C2 (single isomer, unassigned) [Compound 863] | < 100 |
| Cc1cc(-c2cnc(C)c(OCC(F)F)c2)nc2c1C(=O)N(c1ccn(C3CCOC3)n1)C2 (single isomer, unassigned) [Compound 864] | < 100 |
| Cc1cc(-c2cncc(S(=O)(=O)N(C)C)c2)nc2c1C(=O)N(c1ccn(C3CCOC3)n1)C2 (single isomer, unassigned) [Compound 954] | < 100 |
| N#CCn1cc(N2Cc3cc(-c4cncc(S(N)(=O)=O)c4)ccc3C2=O)cn1 [Compound 76] | 100 to 490 |
| COc1cncc(-c2cc(C)c3c(n2)C(OC)N(c2cc[nH]n2)C3=O)c1 (centres unmarked) [Compound 759] | 500 to 2500 |
| COc1cncc(-c2cc(C)c3c(n2)C(C)(C)N(c2ccn(C[C@H](C)O)n2)C3=O)c1 [Compound 872] | 100 to 490 |

Other lines, results leading:

| Ki [nM] | Structure (SMILES) |
| --- | --- |
| 100 to 490 | COc1cc(-c2ccc3c(c2)CN(c2cn[nH]c2)C3=O)cnc1OC [Compound 13] |
| 500 to 2500 | COc1cc(-c2ccc3c(n2)CN(c2ccc(N(C)CCN(C)C)nc2)C3=O)cnc1OC [Compound 195] |
| 500 to 2500 | COc1cc(-c2ccc3c(n2)C(N2CCCN(C)CC2)N(c2cnn(CC(F)(F)F)c2)C3=O)cnc1OC (centres unmarked) [Compound 663] |
| 500 to 2500 | COc1cc(-c2ccc3c(n2)[C@@H](N2CCOCC2)N(c2cnn(CC(F)(F)F)c2)C3=O)cnc1OC [Compound 665] |
| < 100 | CO/N=C/c1cncc(-c2cc(C)c3c(n2)C(C)(C)N(c2cnn(CC(F)(F)F)c2)C3=O)c1 [Compound 883] |
| < 100 | Cc1cc(-c2cncc([S@+](C)[O-])c2)nc2c1C(=O)N(c1cnn(CC(F)(F)F)c1)C2(C)C [Compound 967] |
| < 100 | Cc1cc(-c2cncc([S@@+](C)[O-])c2)nc2c1C(=O)N(c1cnn(CC(F)(F)F)c1)C2(C)C [Compound 968] |

Test system: activated microglia
Assay: Microglia activation assay (LPS-treated mice, Iba1 IHC of brain)
Format: in vivo
Settings: 10 mg/kg b.i.d. oral, LPS 0.5 mg/kg i.p., female C57Bl/6J mice
Description: Female C57Bl/6J mice (7 weeks old) were purchased from Jackson Laboratory (Maine, US). Animals were acclimated for a week at standard laboratory conditions (12 hrs light cycles) with free access to rodent chow and water. All procedures were in accordance with the National Institute of Health Guidelines for the care and Use of Laboratory Animals and were approved by IACUCC. The endotoxin Lipopolysaccharide (LPS) (E. coli 011:B4, cat #437627) was purchased from Calbiochem. LPS was dissolved in PBS buffer at a concentration of 0.05 mg/ml and stored in frozen aliquots. At the start of the study, mice received an intraperitoneal (i.p.) injection of LPS (0.5 mg/kg) for three consecutive days. Therapeutic treatment with VRT compounds was started together with the 2nd LPS administration and maintained throughout the study. Compound was dosed twice a day orally by gavage for a total of 4 doses. 24 h following the last LPS injection, and 2 hrs following the last VRT dose, animals were sacrificed by CO2 asphyxiation. […]
Digital images were captured using the Aperio ScanScope Slide Scanner (Aperio Technologies, Vista, Calif.). Images were captured at 20× optical magnification, and analyzed using the software Definiens Developer XD. […] Compound efficacy was calculated as percent decrease in number of activated microglia relative to vehicle control.

| Structure (SMILES) | percent decrease in number of activated microglia relative to vehicle control [%] |
| --- | --- |
| Cc1cc(-c2cncc(OC(F)F)c2)nc2c1C(=O)N(c1cnn(CC(F)(F)F)c1)C2 [Compound 271] | 39 |
